Structures can show the parent of a compound that is named as a salt.

In one assay the target is human norepinephrine transporter (hNET) (Homo sapiens, UniProt P23975). Nature of the assay: hNET uptake, Protocol B: cell based norepinephrine reuptake assay using recombinant hNET (MDCK-Net6 cells). The settings on record: MDCK-Net6, read-out: NE uptake (Protocol B) % inhibition @ 6 uM.
Chain of human norepinephrine transporter (hNET) (P23975 whole entry): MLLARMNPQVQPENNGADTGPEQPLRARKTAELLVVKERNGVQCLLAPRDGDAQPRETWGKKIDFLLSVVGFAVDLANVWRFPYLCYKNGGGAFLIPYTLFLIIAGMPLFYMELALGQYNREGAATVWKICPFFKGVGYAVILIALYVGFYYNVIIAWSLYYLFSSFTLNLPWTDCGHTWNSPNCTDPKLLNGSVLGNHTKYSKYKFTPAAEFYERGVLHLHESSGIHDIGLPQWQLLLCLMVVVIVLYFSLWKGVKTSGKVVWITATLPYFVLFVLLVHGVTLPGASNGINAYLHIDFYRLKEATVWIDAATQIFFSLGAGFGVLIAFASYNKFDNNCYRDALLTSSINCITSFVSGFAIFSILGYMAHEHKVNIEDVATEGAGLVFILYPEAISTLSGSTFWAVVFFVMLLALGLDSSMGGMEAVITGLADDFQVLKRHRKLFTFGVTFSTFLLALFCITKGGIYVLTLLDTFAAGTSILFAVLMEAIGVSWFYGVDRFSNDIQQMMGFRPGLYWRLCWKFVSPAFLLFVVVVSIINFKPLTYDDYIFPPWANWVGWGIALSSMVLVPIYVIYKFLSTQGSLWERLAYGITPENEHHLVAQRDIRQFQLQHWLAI
For orientation: inhibition means the relative decrease from the control value, in per cent. Take `CN(C)CCCCN1c2ccccc2N(c2ccc(F)cc2Cl)S1(=O)=O` [Example 88, 4-[3-(2-chloro-4-fluorophenyl)-2,2-dioxido-2,1,3-benzothiadiazol-1(3H)-yl]-N,N-dimethylbutan-1-amine hydrochloride]: the inhibition at 6 µM was 57%.

In the case of `CN(C)CCCCCN1c2ccccc2N(c2ccc(F)cc2Cl)S1(=O)=O` [Example 90, 5-[3-(2-chloro-4-fluorophenyl)-2,2-dioxido-2,1,3-benzothiadiazol-1(3H)-yl]-N,N-dimethylpentan-1-amine hydrochloride], the inhibition at 6 µM is 49%.

The same assay, now with this note: NE uptake (Protocol B) IC50 (nM), MDCK-Net6 cells, 3H-NE 16 nM.
Usually IC50 stands for the concentration that gives 50% inhibition. As for `NCCCN1c2ccccc2N(c2c(F)cccc2F)S1(=O)=O` [Example 69, 3-[3-(2,6-Difluorophenyl)-2,2-dioxido-2,1,3-benzothiadiazol-1(3H)-yl]propan-1-amine hydrochloride], the IC50 was 10.4 nM.

Consider `NCCCN1c2ccccc2N(c2c(F)cc(F)cc2F)S1(=O)=O` [Example 70, 3-[2,2-Dioxido-3-(2,4,6-trifluorophenyl)-2,1,3-benzothiadiazol-1(3H)-yl]propan-1-amine hydrochloride], for which the IC50 was 277 nM.

Turning to `CNCCCN1c2ccc(-c3ccccc3)cc2N(c2ccccc2F)S1(=O)=O` [Example 71, 3-[3-(2-fluorophenyl)-2,2-dioxido-5-phenyl-2,1,3-benzothiadiazol-1(3H)-yl]-N-methylpropan-1-amine hydrochloride], the IC50 turned out to be 206 nM.

As to `NCCCN1c2ccccc2N(c2ccc(F)cc2F)S1(=O)=O` [Example 72, 3-[3-(2,4-difluorophenyl)-2,2-dioxido-2,1,3-benzothiadiazol-1(3H)-yl]propan-1-amine hydrochloride], the IC50 stood at 259 nM.

Turning to `CNCCCN1c2cccc(F)c2N(c2ccccc2F)S1(=O)=O` [Example 73, 3-[4-fluoro-3-(2-fluorophenyl)-2,2-dioxido-2,1,3-benzothiadiazol-1(3H)-yl]-N-methylpropan-1-amine hydrochloride], the IC50 was 2.81 nM.

Turning to `NCCCN1c2cccc(F)c2N(c2ccccc2F)S1(=O)=O` [Example 74, 3-[4-fluoro-3-(2-fluorophenyl)-2,2-dioxido-2,1,3-benzothiadiazol-1(3H)-yl]propan-1-amine hydrochloride], the IC50 amounted to 2.7 nM.

Consider `CNCCCN1c2ccccc2N(c2ccc(F)cc2F)S1(=O)=O` [Example 75, 3-[3-(2,4-difluorophenyl)-2,2-dioxido-2,1,3-benzothiadiazol-1(3H)-yl]-N-methylpropan-1-amine hydrochloride], for which the IC50 came to 4.17 nM.

Turning to `CNCCCN1c2c(F)cccc2N(c2ccccc2F)S1(=O)=O` [Example 76, 3-[7-fluoro-3-(2-fluorophenyl)-2,2-dioxido-2,1,3-benzothiadiazol-1(3H)-yl]-N-methylpropan-1-amine], the 50% inhibitory concentration (IC50) is 5.24 nM.

As for `CNCCCN1c2ccccc2N(c2c(F)cc(F)cc2F)S1(=O)=O` [Example 77, 3-[2,2-Dioxido-3-(2,4,6-trifluorophenyl)-2,1,3-benzothiadiazol-1(3H)-yl]-N-methylpropan-1-amine hydrochloride], the IC50 is 15 nM.

`CNCCCN1c2c(F)cccc2N(c2ccc(F)cc2F)S1(=O)=O` [Example 78, 3-[3-(2,4-Difluorophenyl)-7-fluoro-2,2-dioxido-2,1,3-benzothiadiazol-1(3H)-yl]-N-methylpropan-1-amine hydrochloride]: the IC50 was determined as 45 nM.

As to `CNCCCN1c2cccc(F)c2N(c2ccc(F)cc2F)S1(=O)=O` [Example 79, 3-[3-(2,4-Difluorophenyl)-4-fluoro-2,2-dioxido-2,1,3-benzothiadiazol-1(3H)-yl]-N-methylpropan-1-amine hydrochloride], the concentration for half-maximal inhibition (IC50) was found to be 9 nM.

Turning to `CN(C)CCCN1c2c(F)cccc2N(c2ccc(F)cc2F)S1(=O)=O` [Example 80, 3-[3-(2,4-Difluorophenyl)-7-fluoro-2,2-dioxido-2,1,3-benzothiadiazol-1(3H)-yl]-N,N-dimethylpropan-1-amine hydrochloride], the IC50 amounted to 448 nM.

Consider `CNCCCCN1c2ccccc2N(c2c(F)cc(F)cc2F)S1(=O)=O` [Example 81, 4-[2,2-Dioxido-3-(2,4,6-trifluorophenyl)-2,1,3-benzothiadiazol-1(3H)-yl]-N-methylbutan-1-amine hydrochloride], for which the IC50 turned out to be 19 nM.

With `CNCCCCN1c2ccccc2N(c2ccc(F)cc2)S1(=O)=O` [Example 82, 4-[3-(4-Fluorophenyl)-2,2-dioxido-2,1,3-benzothiadiazol-1(3H)-yl]-N-methylbutan-1-amine hydrochloride], the half-maximal inhibitory concentration (IC50) worked out at 46 nM.

In the case of `CNCCCCN1c2ccccc2N(c2c(F)cccc2F)S1(=O)=O` [Example 83, 4-[3-(2,6-Difluorophenyl)-2,2-dioxido-2,1,3-benzothiadiazol-1(3H)-yl]-N-methylbutan-1-amine hydrochloride], the IC50 came out at 2 nM.

On to `O=S1(=O)N(CCCNC2CC2)c2ccccc2N1c1c(F)cccc1F` [Example 84, N-{3-[3-(2,6-Difluorophenyl)-2,2-dioxido-2,1,3-benzothiadiazol-1(3H)-yl]propyl}cyclopropanamine hydrochloride], for which the IC50 worked out at 21 nM.

Regarding `O=S1(=O)N(CCCNC2CC2)c2ccccc2N1c1ccc(F)cc1F` [Example 85, N-{3-[3-(2,4-Difluorophenyl)-2,2-dioxido-2,1,3-benzothiadiazol-1(3H)-yl]propyl}cyclopropanamine hydrochloride], the concentration for half-maximal inhibition (IC50) was found to be 203 nM.

Consider `O=S1(=O)N(CCCCNC2CC2)c2ccccc2N1c1c(F)cccc1F` [Example 86, N-{4-[3-(2,6-Difluorophenyl)-2,2-dioxido-2,1,3-benzothiadiazol-1(3H)-yl]butyl}cyclopropanamine hydrochloride], for which the concentration for half-maximal inhibition (IC50) was determined as 21 nM.

For `CNCCCCN1c2ccccc2N(c2ccc(F)cc2Cl)S1(=O)=O` [Example 87, 4-[3-(2-chloro-4-fluorophenyl)-2,2-dioxido-2,1,3-benzothiadiazol-1(3H)-yl]-N-methylbutan-1-amine hydrochloride], the IC50 is 82 nM.

For the molecule `CNCCCCCN1c2ccccc2N(c2ccc(F)cc2Cl)S1(=O)=O` [Example 89, 5-[3-(2-chloro-4-fluorophenyl)-2,2-dioxido-2,1,3-benzothiadiazol-1(3H)-yl]-N-methylpentan-1-amine hydrochloride], the IC50 was 2110 nM.

On to `CNCCCN1c2ccccc2N(c2ccc(OC)cc2F)S1(=O)=O` [Example 91, 3-[3-(2-fluoro-4-methoxyphenyl)-2,2-dioxido-2,1,3-benzothiadiazol-1(3H)-yl]-N-methylpropan-1-amine hydrochloride], for which the IC50 is 325 nM.

Consider `CNCCCN1c2ccccc2N(c2ccc(O)cc2F)S1(=O)=O` [Example 92, 3-fluoro-4-{3-[3-(methylamino)propyl]-2,2-dioxido-2,1,3-benzothiadiazol-1(3H)-yl}phenol hydrochloride], for which the IC50 came out at 3 nM.

Regarding `CNCCCCN1c2ccccc2N(c2ccc(O)cc2F)S1(=O)=O` [Example 93, 3-fluoro-4-{3-[4-(methylamino)butyl]-2,2-dioxido-2,1,3-benzothiadiazol-1(3H)-yl}phenol hydrochloride], the IC50 was determined as 3 nM.

`CNCCCN1c2ccccc2N(c2ccc(Cl)cc2F)S1(=O)=O` [Example 95, 3-[3-(4-chloro-2-fluorophenyl)-2,2-dioxido-2,1,3-benzothiadiazol-1(3H)-yl]-N-methylpropan-1-amine]: the IC50 was 30 nM.

Take `O=S1(=O)N(CCCNC2CC2)c2ccccc2N1c1ccccc1` [Example 96, N-[3-(2,2-dioxido-3-phenyl-2,1,3-benzothiadiazol-1(3H)-yl)propyl]cyclopropanamine]: the IC50 was 113 nM.

With `O=S1(=O)N(CCCNC2CC2)c2ccccc2N1c1ccccc1F` [Example 97, N-{3-[3-(2-fluorophenyl)-2,2-dioxido-2,1,3-benzothiadiazol-1(3H)-yl]propyl}cyclopropanamine], the IC50 is 21 nM.

On to `CNCCCN1c2ccccc2N(c2ccc(Cl)cc2C)S1(=O)=O` [Example 100, 3-[3-(4-chloro-2-methylphenyl)-2,2-dioxido-2,1,3-benzothiadiazol-1(3H)-yl]-N-methylpropan-1-amine], for which the IC50 was found to be 370 nM.

On to `CNCCCCCCN1c2ccccc2N(c2ccccc2F)S1(=O)=O` [Example 101, 6-[3-(2-fluorophenyl)-2,2-dioxido-2,1,3-benzothiadiazol-1(3H)-yl]-N-methylhexan-1-amine], for which the IC50 stood at 1160 nM.

Take `NCCCCCCN1c2ccccc2N(c2ccccc2F)S1(=O)=O` [Example 102, 6-[3-(2-fluorophenyl)-2,2-dioxido-2,1,3-benzothiadiazol-1(3H)-yl]hexan-1-amine]: the concentration for half-maximal inhibition (IC50) stood at 26 nM.

Take `CN(C)CCCCCCN1c2ccccc2N(c2ccccc2F)S1(=O)=O` [Example 103, 6-[3-(2-fluorophenyl)-2,2-dioxido-2,1,3-benzothiadiazol-1(3H)-yl]-N,N-dimethylhexan-1-amine]: the IC50 was determined as 1200 nM.

As for `CNCCCCN1c2ccccc2N(c2ccc(C)cc2F)S1(=O)=O` [Example 104, 4-[3-(2-fluoro-4-methylphenyl)-2,2-dioxido-2,1,3-benzothiadiazol-1(3H)-yl]-N-methylbutan-1-amine], the IC50 amounted to 26 nM.

Take `Cc1ccc(N2c3ccccc3N(CCCCN)S2(=O)=O)c(F)c1` [Example 105, 4-[3-(2-fluoro-4-methylphenyl)-2,2-dioxido-2,1,3-benzothiadiazol-1(3H)-yl]butan-1-amine]: the IC50 was determined as 125 nM.

In the case of `Cc1ccc(N2c3ccccc3N(CCCCN(C)C)S2(=O)=O)c(F)c1` [Example 106, 4-[3-(2-fluoro-4-methylphenyl)-2,2-dioxido-2,1,3-benzothiadiazol-1(3H)-yl]-N,N-dimethylbutan-1-amine], the IC50 was 591 nM.

As for `CCNCCCCN1c2ccccc2N(c2ccc(C)cc2F)S1(=O)=O` [Example 107, N-ethyl-4-[3-(2-fluoro-4-methylphenyl)-2,2-dioxido-2,1,3-benzothiadiazol-1(3H)-yl]butan-1-amine], the IC50 is 582 nM.
